The results in this text go back to ChEMBL document CHEMBL4715857, “Structure-based linker exploration: Discovery of 1-ethyl-1H-indole analogs as novel ATX inhibitors” (Bioorg Med Chem, 2020).

This experiment deals with Autotaxin (Homo sapiens, UniProt Q13822). Put plainly: Inhibition of glycosylated human ATX using FS-3 as substrate preincubated for 45 mins followed by substrate addition and measured every 1 min for 30 mins by fluorescence microplate reader assay.
Consider `CCn1cc(C(=O)N/N=C/c2coc3ccccc3c2=O)c2cc(-c3nc(CN4CCOCC4)cs3)ccc21`, for which the IC50 – broadly, the midpoint of a concentration-inhibition curve – was 7240 nM.

As for `CCn1cc(NC(=O)NCc2ccc(F)cc2)c2cc(NC(=O)c3ccc(CN4CCC(O)CC4)cc3)ccc21`, the IC50 was found to be 2.3 nM. With `CCn1cc(C(=O)N/N=C/c2c(O)ccc3ccccc23)c2cc(-c3nc(CN4CCOCC4)cs3)ccc21` the figure was over 10000 nM; with `CCn1cc(C(=O)N/N=C/c2ccc(F)cc2Cl)c2cc(-c3nc(CN4CCOCC4)cs3)ccc21`, 6370 nM; with `CCn1cc(C(=O)O)c2cc(-c3nc(CN4CCC[C@H]4CO)cs3)ccc21`, 590 nM. For `CCn1cc(C(=O)N/N=C/c2ccc(F)cc2F)c2cc(-c3nc(CN4CCOCC4)cs3)ccc21` the value was 4050 nM; for `CCn1cc(C(=O)N/N=C(\C)c2ccc(OC)cc2)c2cc(-c3nc(CN4CCOCC4)cs3)ccc21`, over 10000 nM; for `CCn1cc(NC(=O)NCc2ccc(F)cc2)c2cc(-c3nc(CN(CCO)CCO)cs3)ccc21`, 234 nM. With `CCn1cc(NC(=O)NCc2ccc(F)cc2)c2cc(-c3nc(CN4CCC(O)CC4)cs3)ccc21` the figure was 313 nM; with `CCn1cc(NC(=O)NCc2ccc(F)cc2)c2cc(NC(=O)c3ccc(CN4CCN(CCO)CC4)cc3)ccc21`, 101 nM; with `CCn1cc(C(=O)O)c2cc(-c3nc(CN4CCN(CCO)CC4)cs3)ccc21`, 410 nM. The molecule `CCn1cc(NC(=O)NCc2ccc(F)cc2)c2cc(NC(=O)c3ccc(CN4CCCCC4)cc3)ccc21` returned an IC50 of 530 nM.

The molecule `CCn1cc(NC(=O)NCc2ccc(F)cc2)c2cc(NC(=O)c3ccc(CN4CCCC4)cc3)ccc21` displayed an IC50 of 280 nM.

Molecule `CCn1cc(C(=O)N/N=C/c2ccc(C(F)(F)F)cc2)c2cc(-c3nc(CN4CCOCC4)cs3)ccc21` had an IC50 of 6140 nM. For `CCn1cc(NC(=O)NCc2ccc(F)cc2)c2cc(NC(=O)c3ccc(CN4CCC(C)CC4)cc3)ccc21` the value was 370 nM; for `CCn1cc(C(=O)O)c2cc(-c3nc(CN4CCCC4)cs3)ccc21`, 930 nM. For `CCn1cc(C(=O)N/N=C2\CCc3cc(Br)ccc32)c2cc(-c3nc(CN4CCOCC4)cs3)ccc21` the value was over 10000 nM. For `CCn1cc(NC(=O)NCc2ccc(F)cc2)c2cc(NC(=O)c3ccc(CN4CCOCC4)cc3)ccc21` the value was 110 nM; for `CCn1cc(NC(=O)NCc2ccc(Cl)cc2)c2cc(-c3nc(CN4CCN(CCO)CC4)cs3)ccc21`, 156 nM; for `CCn1cc(NC(=O)NCc2ccc(Cl)cc2)c2cc(NC(=O)c3ccc(CN4CCCC4)cc3)ccc21`, 351 nM. With `CCn1cc(C(=O)N/N=C2\CCc3cc(OC)c(OC)cc32)c2cc(-c3nc(CN4CCOCC4)cs3)ccc21`, half-maximal inhibition (IC50) was put at 8270 nM. For `CCn1cc(NC(=O)NCc2ccc(Cl)cc2)c2cc(NC(=O)c3ccc(CN4CCOCC4)cc3)ccc21` the value was 107 nM; for `CCn1cc(NC(=O)NCc2ccc(F)cc2)c2cc(NC(=O)c3ccc(CN4CCN(C)CC4)cc3)ccc21`, 190 nM. For `CCn1cc(C(=O)O)c2cc(-c3nc(CN(CO)CO)cs3)ccc21` the value was 710 nM. With `CCn1cc(NC(=O)NCc2ccc(F)cc2)c2cc(-c3nc(CN4CCOCC4)cs3)ccc21` the figure was 252 nM. In turn, `CCn1cc(C(=O)N/N=C/c2ccc(F)c(F)c2)c2cc(-c3nc(CN4CCOCC4)cs3)ccc21` registered an IC50 of 3490 nM.

As for `CCn1cc(NC(=O)NCc2ccc(Cl)cc2)c2cc(NC(=O)c3ccc(CN4CCC(O)CC4)cc3)ccc21`, the half-maximal inhibitory concentration (IC50) worked out at 13.1 nM. For `CCn1cc(C(=O)O)c2cc(-c3nc(CN4CCC(O)CC4)cs3)ccc21` the value was 680 nM; for `CCn1cc(C(=O)O)c2cc(-c3nc(CN4CCOCC4)cs3)ccc21`, 820 nM. With `CCn1cc(C(=O)O)c2cc(-c3nc(CN4CCN(C)CC4)cs3)ccc21` the figure was 1290 nM; with `CCn1cc(C(=O)N/N=C(\C)c2ccc(F)cc2F)c2cc(-c3nc(CN4CCOCC4)cs3)ccc21`, 9230 nM. With `CCn1cc(NC(=O)NCc2ccc(Cl)cc2)c2cc(-c3nc(CN4CCN(C)CC4)cs3)ccc21` the figure was 199 nM.
